# Tests used:
# U87 cells = test: Mitochondrial mass, MitoTracker Green; assay type: cell-based, human; conditions: 24 h
# Description: Next, to evaluate whether the observed compound 12-driven disturbance of mitochondrial homeostasis in glioblastoma cells involved an alteration in mitochondrial abundance, U87 cells were treated with 12 at 2 and 4 µM for 24 h and stained with MitoTracker Green, a fluorescent probe accumulated in mitochondria ΔψM-independently. […] The obtained results agree well with published data: Yang et al. and Gibellini et al. found a similar increase in mitochondrial mass in RAW264.7 macrophages and colon carcinoma RKO cells treated with CDDO-Im and CDDO, respectively. We suppose that the observed triterpenoid-induced mitogenesis in glioblastoma cells is mediated by compensatory mechanisms in response to compound 12-triggered mitochondrial stress and that it plays a cytoprotective role—high mitochondrial mass is known to be highly correlated with chemotherapy-driven redundant production of reactive oxygen species (ROS) in tumor cells and to underlie their chemoresistance.
# U87 cells were seeded at a density of 2.8 × 10^5 cells/well in 6-well plates and incubated overnight, followed by their treatment with 12 at 2 and 4 µM for 24 h. […] Thereafter, the cells were washed twice with PBS and analyzed by flow cytometry. In total, 10,000 events were recorded for each sample.
# U118 cells = test: Colony formation assay, U118; assay type: cell-based, human; conditions: 14 days
# Description: To evaluate the antitumor potential of 12 more comprehensively, its effects at non-toxic concentrations (25–500 nM; cell survival of ≥90%) on a range of metastatic-related processes in glioblastoma cells were studied. Firstly, we investigated the inhibitory activity of 12 on the clonogenic capacity of tumor cells in vitro, which reflects their ability to form colonies from single cells which characterizes the stemness of tumor cells and plays a crucial role in metastasis.
# U118 cells were seeded in 96-well plates in six replicates at a density of 200 cells/well and treated with 12 at 25–500 nM for 14 days under standard conditions. The culture media were replaced with fresh media containing corresponding concentrations of 12 every 6 days. After the incubation time, cell colonies were fixed with 4% paraformaldehyde, stained with crystal violet dye (0.1% w/v) and photographed using the iBright 1500 Imaging System (Invitrogen, USA). The percentage of area covered by cell colonies was computed using the ColonyArea ImageJ plugin [95].
# [1] = Brain accumulation of 12 by HPLC–MS/MS; assay type: in vivo, Balb/C nude mice; conditions: seven injections
# Description: (seven injections were performed in total) and brain tissue was collected 48 h after the last injection of 12 followed by a high-performance liquid chromatography–tandem mass spectrometry (HPLC–MS/MS) analysis of the obtained samples (Figure 3D). This treatment regimen was chosen due to its common usage in the evaluation of antitumor activity of various low-molecular weight compounds in xenograft murine models. […] Before the HPLC–MS/MS analysis, chromatographic conditions and mass spectrometer parameters for detecting both semisynthetic triterpenoid 12 and the internal standard in the multiple reaction monitoring (MRM) mode were optimized. […]
# To estimate the content of 12 in mouse brain tissue, a set of calibrators was prepared followed by their preparation protocol. The obtained samples were analyzed using the developed HPLC–MS/MS method and a calibration curve was built over the range of concentrations of 10–1000 ng/g. […] The validation of the method for quantification of 12 in mouse brain tissue and investigation of its pharmacokinetics will be the objectives of our next study. […]
# To prepare calibrators, mouse brain tissue samples taken from three healthy untreated animals were pooled and homogenized as described above. […] The obtained supernatants were transferred into vial inserts and analyzed. To quantify 12 in experimental animal brain tissue, a sample weighing c.a. […]
smiles,measurement,setting,value
CC1(C)C(=O)C(C#N)=C[C@]2(C)C3=CC(=O)[C@@H]4[C@@H]5C[C@@](C)(C(=O)NCCc6c[nH]c7ccccc67)CC[C@]5(C)CC[C@@]4(C)[C@]3(C)CC[C@@H]12 [compound 12],induction of mitochondrial biogenesis,"U87 cells; U87, 12 at 2 µM",statistically insignificant
same,increase of mitochondrial mass compared to the control,"U87 cells; U87, 12 at 4 µM",1.6 fold
same,reduction in the area of cell colonies compared to the control,"U118 cells; U118, 12 at 200 nM",1.4 fold
same,reduction in the area of cell colonies compared to the control,"U118 cells; U118, 12 at 500 nM",2 fold
same,concentration of 12 in brain tissue of tumor-bearing mice,"[1]; U87 tumor-bearing nude mice, 20 mg/kg i.p.",118 ng/g
same,concentration of 12 in brain tissue,"[1]; nude mice, 50 mg/kg i.p., thrice a week, 48 h after last injection",490 ng/g

# Reference: publication PMC9145754, “Novel Soloxolone Amides as Potent Anti-Glioblastoma Candidates: Design, Synthesis, In Silico Analysis and Biological Activities In Vitro and In Vivo” (Pharmaceuticals, 2022)
